In the supplement of paper PMC10307832:

How the values were obtained:
Assay in all cases: relative viability (nuclei count vs DMSO), 5 days (fraction); higher = more cells survive
BAM7 + Dasatinib = compound: CCOC1=CC=CC=C1N=NC2=C(NN(C2=O)C3=NC(=CS3)C4=CC=CC=C4)C [BAM7] + Cc1nc(Nc2ncc(C(=O)Nc3c(C)cccc3Cl)s2)cc(N2CCN(CCO)CC2)n1 [Dasatinib] (partner 0.075 µM)
Outline: (§1)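 Lung cancer cell lines were seeded in 1536-well plates and dosed by pin tool the next day, with either a single drug or a fixed anchor-drug dose combined with five library-drug doses (not always all listed) spaced in √10 steps. Five days later, one step fixed the cells and stained their nuclei (final 0.05% Triton X-100, 1% formaldehyde, 1 ug/ml Hoechst), and nuclei were counted on 4× images. Relative viability is the nuclei count in treated wells divided by the count in vehicle wells, and each value is the median of duplicate plates.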

[1] = compound: CCn1c(-c2nonc2N)nc2c(C#CC(C)(C)O)ncc(OC[C@H]3CCCNC3)c21 + O=C(CCCCCCC(=O)Nc1ccccc1)NO [Vorinostat] (partner 1 µM)
Outline: as §1

[2] = compound: CCn1c(-c2nonc2N)nc2c(C#CC(C)(C)O)ncc(OC[C@H]3CCCNC3)c21 + COc1cccc2cc(-c3nc([C@H]4CC[C@H](C(=O)O)CC4)n4ncnc(N)c34)[nH]c12 [OSI-027] (partner 0.5 µM)
Outline: as §1

[3] = compound: CCn1c(-c2nonc2N)nc2c(C#CC(C)(C)O)ncc(OC[C@H]3CCCNC3)c21 + Cc1nc(NC(=O)N2CCC[C@H]2C(N)=O)sc1-c1ccnc(C(C)(C)C(F)(F)F)c1 [Alpelisib] (partner 2 µM)
Outline: as §1

Cell Line | relative viability (BAM7 + Dasatinib; first compound 0.5 µM) | relative viability (BAM7 + Dasatinib; first compound 5 µM) | relative viability (BAM7 + Dasatinib; first compound 15.81 µM) | relative viability (BAM7 + Dasatinib; first compound 50 µM) | relative viability ([1]; first compound 0.01 µM) | relative viability ([1]; first compound 0.03162 µM) | relative viability ([1]; first compound 0.1 µM) | relative viability ([1]; first compound 0.3162 µM) | relative viability ([1]; first compound 1 µM) | relative viability ([2]; first compound 0.01 µM) | relative viability ([2]; first compound 0.03162 µM) | relative viability ([2]; first compound 0.1 µM) | relative viability ([2]; first compound 0.3162 µM) | relative viability ([2]; first compound 1 µM) | relative viability ([3]; first compound 0.01 µM) | relative viability ([3]; first compound 0.03162 µM) | relative viability ([3]; first compound 0.1 µM) | relative viability ([3]; first compound 0.3162 µM) | relative viability ([3]; first compound 1 µM)
NCI-H1650 | 0.338 | 0.278 | 0.277 | 0.337 | 0.614 | 0.628 | 0.642 | 0.377 | 0.462 | 0.641 | 0.625 | 0.508 | 0.421 | 0.359 |  |  |  |  | 
BEN | 0.351 | 0.351 | 0.323 | 0.42 | 0.635 | 0.617 | 0.569 | 0.56 | 0.667 | 0.311 | 0.302 | 0.224 | 0.275 | 0.299 | 1.01 | 1.17 | 1.01 | 0.987 | 1.01
EMC-BAC-2 | 0.301 | 0.366 | 0.331 | 0.394 | 0.203 |  | 0.448 | 0.429 | 0.448 | 0.341 | 0.379 | 0.354 | 0.369 | 0.336 | 0.756 | 0.73 | 0.7 | 0.759 | 0.784
LU99A | 0.661 | 0.642 | 0.577 | 0.476 | 0.52 | 0.531 | 0.46 | 0.453 | 0.571 | 0.284 | 0.298 | 0.283 | 0.267 | 0.282 | 0.586 | 0.558 | 0.538 | 0.504 | 0.47
ABC-1 | 0.675 | 0.624 | 0.496 | 0.61 | 1.03 |  | 1.06 | 1.08 | 1.23 | 0.394 | 0.36 | 0.394 | 0.31 | 0.304 | 0.849 | 0.961 | 1.09 | 0.881 | 0.715
NCI-H2170 | 0.644 | 0.683 | 0.731 | 0.777 | 0.841 | 0.764 | 0.836 | 0.699 | 0.85 | 0.733 | 0.715 | 0.766 | 0.66 | 0.679 | 0.837 | 0.833 | 0.824 | 0.721 | 0.759
NCI-H1299 |  |  |  |  |  |  |  |  |  |  |  |  |  |  | 1.05 | 1.06 | 1.05 | 1.03 | 0.968
EBC-1 |  |  |  |  |  |  |  |  |  |  |  |  |  |  | 0.822 | 0.973 | 0.763 | 0.62 | 0.628
NCI-H2347 | 0.303 | 0.345 |  | 0.339 | 0.602 | 0.522 | 0.611 | 0.543 | 0.55 | 0.419 | 0.42 |  | 0.466 | 0.336 | 1.09 | 0.97 | 0.992 | 0.972 | 1.17
NCI-H1993 | 0.492 | 0.541 | 0.502 | 0.575 | 1.01 | 0.805 | 0.825 | 0.776 | 0.543 | 0.579 | 0.537 | 0.525 | 0.546 | 0.549 | 0.732 | 0.718 | 0.57 | 0.729 | 0.868
NCI-H322M | 0.271 | 0.287 | 0.287 | 0.281 | 0.75 | 0.724 | 0.754 | 0.702 | 0.869 | 0.479 | 0.496 | 0.45 | 0.42 | 0.483 | 0.868 | 0.765 | 0.121 | 0.853 | 0.813
NCI-H838 | 0.36 | 0.297 | 0.295 | 0.335 | 0.728 | 0.786 | 0.722 | 0.685 | 0.711 | 0.354 | 0.406 | 0.367 | 0.401 | 0.428 | 1.05 | 1.02 | 1.03 | 0.979 | 0.989
HARA | 0.293 | 0.403 | 0.291 | 0.328 | 0.487 | 0.488 | 0.638 | 0.44 | 0.532 | 0.5 | 0.575 | 0.368 | 0.472 | 0.459 | 0.843 | 0.884 | 0.824 | 0.781 | 0.861
NCI-H2342 | 0.286 | 0.343 | 0.352 | 0.316 | 0.713 | 0.647 | 0.579 | 0.724 | 0.782 | 0.598 | 0.617 | 0.517 | 0.546 | 0.594 |  |  |  |  | 
NCI-H1792 | 0.827 | 0.833 | 0.665 | 0.822 |  |  |  |  |  | 0.739 |  | 0.696 | 0.715 | 0.842 | 0.776 | 0.697 | 0.667 | 0.596 | 0.791
ChaGo-K-1 | 0.641 | 0.523 | 0.507 | 0.726 | 0.758 | 0.757 | 0.777 | 0.724 | 0.776 | 0.556 | 0.561 | 0.504 | 0.518 | 0.6 |  |  |  |  | 
HCC-44 |  |  |  |  | 1.07 | 1.07 | 1.05 | 1.07 | 1.04 |  |  | 0.484 | 0.372 | 0.499 | 0.732 | 0.818 | 0.794 | 0.761 | 0.786
A549 |  |  |  |  |  |  |  |  |  |  |  |  |  |  | 0.761 | 0.654 | 0.748 | 0.482 | 0.714
NCI-H1563 | 0.438 | 0.497 | 0.484 | 0.41 |  |  |  |  |  | 0.73 | 0.783 | 0.686 | 0.688 | 0.666 | 0.872 | 0.913 | 0.913 | 0.837 | 0.826
SW 900 | 0.358 | 0.398 | 0.711 | 0.656 | 0.524 | 0.503 | 0.386 | 0.312 | 0.569 | 0.452 | 0.321 | 0.507 | 0.435 | 0.562 |  |  |  |  | 
IA-LM |  |  |  |  | 1.04 | 0.961 | 0.953 | 0.859 | 1 |  |  |  |  |  | 0.728 | 0.733 | 0.987 | 0.654 | 0.613
NCI-H1703 |  |  |  |  |  |  |  |  |  |  |  |  |  |  | 0.333 | 0.374 | 0.392 | 0.28 | 0.299
NCI-H1648 |  |  |  |  | 0.591 | 0.418 | 0.365 | 0.367 | 0.315 |  | 0.271 | 0.278 | 0.265 | 0.246 |  |  |  |  | 
